Key:
[1] = target: Regulator of G-protein signaling 16 (Homo sapiens, UniProt O15492); assay: Inhibitory Assay: FCPIA Characterization of RGS Inhibitory Activity: CCG-50014 (FIG. 1) was originally identified as a potential inhibitor of RGS8 and RGS16 in a polyplex high throughput screen to identify inhibitors of the RGS-Gα interaction [4]. This activity was confirmed by analyzing the effect of CCG-50014 on several different RGS proteins with freshly reordered compound using multiplexed …
[2] = target: Regulator of G-protein signaling 19 (Homo sapiens, UniProt P49795); assay: as above
Sequence of Regulator of G-protein signaling 19 (P49795 whole entry, looked up, change not shown): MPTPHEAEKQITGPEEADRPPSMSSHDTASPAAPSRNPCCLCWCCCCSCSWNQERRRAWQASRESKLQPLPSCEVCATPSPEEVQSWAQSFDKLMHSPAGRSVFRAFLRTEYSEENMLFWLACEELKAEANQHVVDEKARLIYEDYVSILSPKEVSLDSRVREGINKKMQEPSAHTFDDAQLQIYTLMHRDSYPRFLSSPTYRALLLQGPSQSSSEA

Sequence of Regulator of G-protein signaling 16 (O15492 whole entry, looked up, stated change not applied): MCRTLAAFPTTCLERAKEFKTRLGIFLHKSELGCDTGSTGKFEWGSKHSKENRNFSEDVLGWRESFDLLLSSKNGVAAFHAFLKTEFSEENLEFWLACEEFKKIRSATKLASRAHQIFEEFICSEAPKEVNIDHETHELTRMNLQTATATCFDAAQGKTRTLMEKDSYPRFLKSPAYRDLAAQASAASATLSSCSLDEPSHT

Cc1ccc(-n2sc(=O)n(Cc3ccc(F)cc3)c2=O)cc1
IC50 [1]: 3.5 µM
IC50 [2]: 0.12 µM
